Laboratory results from BindingDB's records for doi:10.1016/S0960-894X(00)80062-1 (1994).

Biological target: Squalene synthase (Candida albicans)
Experiment: In vitro inhibitory activity against Candida albicans squalene synthase

C=C(CCC12CCC(C(=O)O)(O1)C(O)(C(=O)O)C(C(=O)O)O2)[C@@H](OC(C)=O)[C@H](C)Cc1ccccc1 (stereo partly drawn) [1-((4S,5R)-4-Acetoxy-5-methyl-3-methylene-6-phenyl-hexyl)-4-hydroxy-2,8-dioxa-bicyclo[3.2.1]octane-3,4,5-tricarboxylic acid] gave an IC50 of 430 nM.
